Data as given in patent publication US6365616B1, “Methimazole derivatives and tautomeric cyclic thiones to treat autoimmune diseases” (Sentron Medical, Inc., priority 1998, dated 2002).

Test system: γ-IFN-increased protein/DNA complex with DRα 5′-flanking region probe
Assay: Gel shift (EMSA) with 137 class II probe, extracts from γ-IFN-treated FRTL-5 cells
Assay type: cell-based, rat
Details: for % inhibition of IFN-increased complex formation: 137 class II probe, γ-IFN-treated 5H cells
Experimental: Cells were grown in 6H medium with 5 % calf serum for 6-7 days to 70-80% confluence, then shifted to 5H medium with 5 % calf serum for 5 days. TSH (1×10^−10 M), gamma-interferon (100 U/ml), MMI (5 mM), and different concentrations of MMI derivatives or tautomeric cyclic thiones (0.0001 to 10 mM) were added as appropriate for […]. Cells were then harvested and extracts were made by a modification of a method of Dignam, J., et al. Methods in Enzymology, 101:582-598 (1983). In brief, cells were harvested by scraping after being washed twice with cold phosphate-buffer saline (PBS). Subsequently they were pelleted, washed in cold PBS and then pelleted again. The pellet was resuspended in Dignam buffer C (20 mM Hepes buffer at pH 7.9, 1.5 mM MgCl2, 0.42 M NaCl, 25% glycerol, 0.5 mM dithiotreitol (DTT), 0.5 mM phenylmethylsulfonylfluoride (PMSF), 1 […] pepstatin). The final NaCl concentration was adjusted on the basis of cell pellet volume to 0.42 M and cells were lysed by repeated cycles of freezing and thawing. Extracts were then centrifuged at 10,000×g at 4° C. for 20 min. The supernatant was recovered, aliquoted and stored at −70° C.
Cell extracts to perform class II gel shift studies were prepared exactly as for class I studies (Dignam et al., ibid, 582-598 (1983); Giuliani C, et al., J. Biol. Chem. 270: 11453-11462 (1995); Saji M, et al., J. Biol. Chem. 272: 20096-20107 (1997); Montani, V., et al., Endocrinology 139: 280-289 (1998a); Montani, V., et al., Endocrinology 139: 290-302 (1998b)), with the exception that the extracts were from γ-interferon treated cells, usually 100 U/ml interferon for 24 to 48 hours. Similarly, electrophoretic mobility shift assays (EMSA) were performed in the same way. Oligonucleotides used for EMSA were synthesized (Operon Technologies, Inc.) or were purified from 2 % agarose gels using either QIAEX (Qiagen, Chatsworth, Calif.) or Jet Sorb (Genomed) following restriction enzyme treatment of chimeric HLA-DRα-CAT constructs (Montani et al., 1998a, b). The oligonucleotides were dephosphorylated with calf intestinal alkaline phosphatase, labeled with […] or with [γ-^32P]ATP using T4 polynucleotide kinase, then purified on an 8% native polyacrylamide gel (Giuliani C, et al., ibid, 11453-11462 (1995); Saji M, et al., ibid, 20096-20107 (1997); Sambrook J, et al., ibid, 2:11.23-11.44 (1989); Montani, V., et al., ibid, 280-289 (1998a), 290-302 (1998b)).
Binding reactions for class II EMSA used similar conditions as well. They were carried out in a volume of 20 μl for 30 min at room temperature. The reaction mixtures contained 1.5 fmol of [^32P]DNA, 3 μg cell extract and 1.5 to 3 μg poly(di-dC) in 10 mM Tris-Cl at pH 7.9, 1 mM MgCl2, 1 mM DTT, 1 mM EDTA, and 5% glycerol. Where indicated, unlabeled double- or single-stranded oligonucleotides were added to the binding reaction as competitors and incubated with the extract for 20 min at room temperature prior to the addition of labeled DNA. Similarly, in experiments using antiserum, extracts were also incubated in the same buffer containing antiserum or normal rabbit serum for 20 min at room temperature before being processed as above. Following incubations, reaction mixtures were subjected to electrophoresis on 3.5 or 5 % native polyacrylamide gels at 160 V in 0.5xTBE, at room temperature, for 1.5 to 2 h. Gels were dried and autoradiographed at -80° C overnight unless otherwise noted.
FIG. 7 depicts the effect of MMI on the ability of γ-IFN to increase the formation of protein/DNA complexes with the […] DR α5′-flanking region probe. The radiolabeled probe is the same as that used and diagrammatically presented in FIG. 6; it contains −137 bp to +45 bp of the 5′-flanking region of DRα-CAT chimera. Extracts were from FRTL-5 rat thyroid cells grown to near confluency in TSH, maintained 6 days in SH medium, then treated with 100 U/ml γ-IFN, 5 mM MMI, or both for the last 48 h before the experiment was terminated. […]

Compound | % inhibition of IFN-increased complex formation (10 μM) [%] | % inhibition of IFN-increased complex formation (100 μM) [%] | % inhibition of IFN-increased complex formation (1 mM) [%] | suppression of interferon-induced class II protein/DNA complexes compared with MMI (FIG. 8) (1 mM) | % inhibition of IFN-increased complex formation (5 mM)
Cn1ccn(C)c1=S [Compound 8, N-Methylmethimazole] | 0 | 21 ± 18 | 86 ± 14 | significantly more effective suppressors than MMI | –
Cc1cnc(S)n1C [Compound 9, 5-Methylmethimazole] | 0 | 0 | 25 ± 15 | – | 40 ± 20%
CSc1nccn1C [Compound 7, S-Methylmethimazole] | 0 | 16 ± 11 | 74 ± 13 | significantly more effective suppressors than MMI | –
Cn1ccnc1S [Compound 1, 1-Methylimidazole-2-thiol] | 0 | 0 | 10 ± 5 | – | 85 ± 12%
Cc1ccc2[nH]c(S)nc2c1 [Compound 6, 2-Mercapto-5-methylbenzimidazole] | 0 | 0 | 35 ± 18 | – | Insol
O=[N+]([O-])c1ccc2[nH]c(S)nc2c1 [Compound 5, 2-Mercapto-5-nitrobenzimidazole] | 0 | 0 | 45 ± 21 | – | Insol
Sc1ncc[nH]1 [Compound 3, 2-Mercaptoimidazole] | 0 | 0 | 0 | – | 0%
Sc1nc2ccccc2[nH]1 [Compound 4, 2-Mercaptobenzimidazole] | 0 | 5 | 65 ± 15 | – | Insol
Cn1c(-c2ccccc2)cnc1S [Compound 10, 5-Phenylmethimazole] | 35 ± 15 | 78 ± 10 | 95 ± 16 | – | –
Cc1ncc([N+](=O)[O-])n1CCO [Compound 2, 2-Methyl-5-nitro-1-imidazole ethanol] | 0 | 0 | 55 ± 14 | significantly more effective suppressors than MMI | 95 ± 10%
